Measured values as given in patent US7071194B2, “Method for improving respiratory function and inhibiting muscular degeneration” (priority 2000, dated 2006).

Legend:
Format in all cases: in vivo, rat
[1] = system: T8 SCI rats; assay: Respiratory function by head-out plethysmograph in conscious rats after T8 contusion SCI; settings: p-MPPI 2 mg/kg i.p., dose titration experiments
[2] = system: T8 SCI rats; assay: as above; settings: for Te (expiratory time) / Ti (inspiratory time) / Tv (tidal volume) / Ve (minute ventilation) / f (respiratory rate): 24 hours post SCI, baseline (room air), rats 360-390 g
Method: Female Sprague-Dawley rats (250–280 g and 360–390 g; Taconic, Germantown, N.Y.) were anesthetized with 4% chloral hydrate (360 mg/kg, i.p.). An incomplete spinal courd contusion injury was produced at T8 with a weight drop device (10 g×2.5 cm) as previously described (Wrathall et al., 1985). After SCI, manual expression of bladders was performed twice daily until a reflex bladder was established. Animal care also included housing the rats in pairs to reduce isolation-induced stress, maintaining ambient temperature at 22–25° C., and using highly absorbent bedding. No prophylactic antibiotics were given.
(§1) Experiments were conducted in unanesthetized, awake, spontaneously breathing rats at 24 hours prior to SCI, at 24 hours p.i. and weekly afterwards at 1,2,3, and 4 weeks p.i. (1) Acclimatization of the Animals. […] Animals were placed in the body cylinder of the plethysmograph (FIG. 1a) for 60 minutes per day for at least 5 days. […] (2) Non-Invasive Measurements of Respiratory Rate, Tidal Volume and Minute Ventilation. Non-invasive measurements of respiratory function in conscious rats were performed with a restrained head-out plethysmograph specially designed for rodents (BUXCO Electronics, Inc., Sharon, Conn.) (FIG. 1a). The plethymograph apparatus has a neck seal that prevents leakage of air from between the animal's neck and the plethymograph opening. Displacement of the thoracic wall produced by the animal's respiratory movements causes changes in the cylinder pressure, which results in air flowing across a pneumotachograph located on the wall of the cylinder. The pressure drop across the pneumotachograph is measured with a pressure transducer and is proportional to the flow. This signal is amplified and integrated into volume. From measurements of volume and flow, a computer and appropriate software provides respiratory parameters, such as respiratory rate (f), tidal volume (Vt), minute ventilation (Ve), peak inspiratory flow, peak expiratory flow, inspiratory time (Ti), expiratory time (Te), and accumulated volume. An additional opening on the wall of the box allows volume calibration by injecting and removing air from the box with a calibrated syringe.
(§2) The noise level in the laboratory was kept to a minimum in order not to startle the animals. Further, the animals were visually isolated from the investigators by means of a chamber made of an opaque material that surrounded and covered the front-end of the body plethysmograph (FIG. 1b). Baseline recordings lasted for 4 minutes. (3) Measurement of Ventilatory Response to Carbon Dioxide. For measurement of the ventilatory response to CO2, animals were exposed to air containing 7% CO2. The animals breathed from a funnel fixed in the front wall of a chamber made of an opaque material (FIG. 1b). The animals were exposed to the gas mixture containing 7% CO2 (mixed with 60% O2 and 33% N2) for 5 minutes with recording of respiratory activity for another 2 minutes (a total recording duration of 7 minutes).
(§3) The 5HT1A receptor antagonist, p-MPPI (RBI, Natick, Mass.) was also dissolved in 0.9% saline and given i.p. in a dose of 3 mg/kg (pH 7.4 and final volume of 0.5 ml). […] Vehicle solution (VEH) was 0.9% saline and also injected at i.p. (pH 7.4; volume: 0.5 ml/rat).
Baseline respiratory function was measured under room air ventilation and after the animal was stabilized inside a boy cylinder (FIGS. 1a and b) for 30 minutes at each time point prior to SCI and after injury. Immediately following the evaluation of baseline respiration, the animals were let to breathe air containing 7% CO2 for 7 minutes to monitor their ventilatory response to CO2 stimulus (Teng et al., 1998a and 1999).

[3] = system: normal conscious rats; assay: Respiratory function by head-out plethysmograph in normal conscious rats; settings: p-MPPI 3 mg/kg i.p., n=3
Method: as §1, §2, §3

[4] = 24 hours p.i., p-MPPI 3 mg/kg i.p. 20 minutes before 8-OH-DPAT
[5] = 3 & 4 min post p-MPPI 3 mg/kg i.p.
[6] = 19 & 20 min post p-MPPI 3 mg/kg i.p.

## COc1ccccc1N1CCN(CCN(C(=O)c2ccc(I)cc2)c2ccccn2)CC1 [p-MPPI, 4-(2′-methoxyphenyl)-1-[2′-[N-(2″-pyridinyl)-p-iodobenzamido]ethyl]piperazine]
[1]
  block of stimulating effects of 8-OH-DPAT on respiratory function: substantially block
[2]; [4]
  effect of pre-treatment on 8-OH-DPAT effects on respiration: significantly suppressed
  effect of pre-treatment on 8-OH-DPAT stimulation of ventilatory response to 7% CO2: significantly blocked
[2]; [5]
  Te (expiratory time): 0.28 ± 0.02↓
  Ti (inspiratory time): 0.33 ± 0.01
  Tv (tidal volume): 0.75 ± 0.08↓ ml
  Ve (minute ventilation): 76.9 ± 4.6↓ ml/min
  f (respiratory rate): 103.2 ± 5.4↑ breaths/min
[2]; [6]
  Te (expiratory time): 0.54 ± 0.10
  Ti (inspiratory time): 0.28 ± 0.04
  Tv (tidal volume): 0.77 ± 0.08↓ ml
  Ve (minute ventilation): 57.8 ± 4.1↓ ml/min
  f (respiratory rate): 76.2 ± 7.7 breaths/min
[3]
  effect of p-MPPI per se on respiratory function: No significant impacts
